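Where inhibition never reached the appropriate level, the endpoint shown equals the highest concentration tested. Otherwise, values were interpolated linearly from a five-concentration, 48-hour dose response in 96-well plates. The concentration for 50% growth inhibition is given as GI50. TGI denotes the concentration required for complete inhibition of growth.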
What was measured:
Experiment in all cases: NCI tumour cell line growth inhibition, 48 h
EKVX NSCLC = system: EKVX NSCLC
HOP-62 NSCLC = system: HOP-62 NSCLC
A549 NSCLC = system: A549 NSCLC
SK-MEL-28 melanoma = system: SK-MEL-28 melanoma
MALME-3M melanoma = system: MALME-3M melanoma
OVCAR-3 ovarian = system: OVCAR-3 ovarian
OVCAR-5 ovarian = system: OVCAR-5 ovarian
SF-539 CNS = system: SF-539 CNS
COLO 205 colon = system: COLO 205 colon
OVCAR-4 ovarian = system: OVCAR-4 ovarian

Row | Structure (SMILES) | GI50 (EKVX NSCLC) [µM] | TGI (EKVX NSCLC) [µM] | GI50 (HOP-62 NSCLC) [µM] | TGI (HOP-62 NSCLC) [µM] | GI50 (A549 NSCLC) [µM] | TGI (A549 NSCLC) [µM] | GI50 (SK-MEL-28 melanoma) [µM] | TGI (SK-MEL-28 melanoma) [µM] | GI50 (MALME-3M melanoma) [µM] | TGI (MALME-3M melanoma) [µM] | GI50 (OVCAR-3 ovarian) [µM] | TGI (OVCAR-3 ovarian) [µM] | GI50 (OVCAR-5 ovarian) [µM] | TGI (OVCAR-5 ovarian) [µM] | GI50 (SF-539 CNS) [µM] | TGI (SF-539 CNS) [µM] | GI50 (COLO 205 colon) [µM] | TGI (COLO 205 colon) [µM] | GI50 (OVCAR-4 ovarian) [µM] | TGI (OVCAR-4 ovarian) [µM]
1 | COc1ccc(C(=O)N/N=C/c2ccc(O)cc2O)cc1Nc1ccnc(C(F)(F)F)c1 | 0.482 | 27.9 | 0.495 | 12.7 | 5.11 | > 53.9 | 0.298 | 4.98 | 0.891 | > 26.7 | 0.317 | 17.8 | 1.16 | 33 | 0.404 | 7.78 | 0.323 | 14.3 | 0.27 | 
2 | O=C1C=C(Nc2nc(C(=O)O)cc(=O)[nH]2)c2ccccc2C1=O |  | > 100 |  | > 100 |  | > 100 |  | > 100 |  | > 100 |  | > 100 |  | > 100 |  | > 100 |  | > 100 |  | > 100
3 | C[C@@]12CCC[C@@](C)(C(=O)O)C1CC[C@@]13CC(=O)[C@@](CO)(CCC12)C3 (some centres undefined) | > 100 | > 100 | > 100 | > 100 | > 100 | > 100 | > 100 | > 100 | > 100 | > 100 | > 100 | > 100 | > 100 | > 100 | > 100 | > 100 | > 100 | > 100 | > 100 | > 100
4 | CC(C)[C@@H](CS(=O)(=O)C(C)C)N1C(=O)[C@@](C)(CC(=O)O)C[C@H](c2cccc(Cl)c2)[C@H]1c1ccc(Cl)cc1 | 11.9 | > 100 | 17.2 | 56.7 | 0.464 | 19.8 | 15.5 | 61.2 | 0.178 | 6.91 | 12.4 | 33 | 25.7 | > 100 | 14 | 35.9 | 14.7 | 34.4 | 7.45 | > 75.9
5 | Cc1cccc(N2C(=O)C(=O)C(c3nc4ccccc4s3)C(=O)C2=O)c1C |  | > 100 |  | > 100 |  | > 100 |  | > 100 |  | > 100 |  | > 100 |  | > 100 |  | > 100 |  | > 100 |  | > 100
6 | Nc1c(O)c(S(=O)(=O)O)c(O)c2c1C(=O)c1ccccc1C2=O | 3.09 | > 100 | 2.92 | > 100 | 2.9 | 12 | 4.09 | > 100 | 2.61 | 8.36 | 2.94 | 14.5 | 3.22 | 32.5 | 6.36 | 30.6 | 1.61 | 3.01 | 3.06 | 20.8
